Measured values as given in patent US10428051B2 (priority 2015, dated 2019).

Molecular target: human σ1 receptor (Homo sapiens, UniProt Q99720)
Assay: biochemical
Type: binding
Design: μ and σ1 dual (binding to the σ1 receptor and the μ-opioid receptor expressed as Ki): key to the marks not given beside the values

human σ1 receptor, sequence (Q99720 whole entry): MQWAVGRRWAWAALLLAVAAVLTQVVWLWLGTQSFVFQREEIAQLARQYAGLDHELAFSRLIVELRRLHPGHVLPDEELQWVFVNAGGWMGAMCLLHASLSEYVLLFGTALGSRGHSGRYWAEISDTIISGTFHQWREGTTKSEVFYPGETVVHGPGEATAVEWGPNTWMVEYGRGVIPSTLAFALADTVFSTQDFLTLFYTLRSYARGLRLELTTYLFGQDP

Question: How did the Ki turn out when `CCC(=O)N(CC1(N2CCN(CC(C)C)CC2)CCC1)c1cccc(C(F)(F)F)n1` [Example 203, N-((1-(4-isobutylpiperazin-1-yl)cyclobutyl)methyl)-N-(6-(trifluoromethyl)pyridin-2-yl)propionamide] was run?
Answer: < 0.5 µM

Question: For `CCC(=O)N(CC1(N2CCN(C(C)CC)CC2)CCOCC1)c1ccccn1` (centres unmarked) [Example 154, N-((4-(4-sec-butylpiperazin-1-yl)tetrahydro-2H-pyran-4-yl)methyl)-N-(pyridin-2-yl)propionamide], which Ki is on record?
Answer: > 0.5 µM

Question: With `CCC(=O)N(CC1(N2CCN(CC(C)C)CC2)CCOC(C)(C)C1)c1cccc(C#N)n1` (centres unmarked) [Example 87, N-(6-cyanopyridin-2-yl)-N-((4-(4-isobutylpiperazin-1-yl)-2,2-dimethyltetrahydro-2H-pyran-4-yl)methyl)propionamide] as the compound, how does the Ki read?
Answer: > 0.5 µM

Question: For `CCC(=O)N(CC1(N2CCN(Cc3ccc(F)c(F)c3)CC2)CC1)c1ccccc1` [Example 117, N-((1-(4-(3,4-difluorobenzyl)piperazin-1-yl)cyclopropyl)methyl)-N-phenylpropionamide], which Ki is on record?
Answer: < 0.1 µM

Question: For `CCOCCN1CCN(C2(CN(C(=O)CC)c3cccc(C(F)(F)F)n3)CCOC3(CCCC3)C2)CC1` (centres unmarked) [Example 176, N-((9-(4-(2-ethoxyethyl)piperazin-1-yl)-6-oxaspiro[4.5]decan-9-yl)methyl)-N-(6-(trifluoromethyl)pyridin-2-yl)propionamide], which Ki is on record?
Answer: < 0.5 µM

Question: With `CCC(=O)N(CC1(N2CCN(Cc3ccccn3)CC2)CCOCC1)c1ccccc1` [Example 102, N-phenyl-N-((4-(4-(pyridin-2-ylmethyl)piperazin-1-yl)tetrahydro-2H-pyran-4-yl)methyl)propionamide] as the compound, how does the Ki read?
Answer: > 0.5 µM

Question: How did the Ki turn out when `CCC(=O)N(CC1(N2CCN(Cc3ccccc3)CC2)CCOCC1)c1ccccc1F` [Example 4, N-((4-(4-benzylpiperazin-1-yl)tetrahydro-2H-pyran-4-yl)methyl)-N-(2-fluorophenyl)propionamide] was run?
Answer: < 0.1 µM

Question: How did the Ki turn out when `CCC(=O)N(CC1(N2CCN(Cc3ccccc3)CC2)CC1)c1cccc(C#N)n1` [Example 97, N-((1-(4-benzylpiperazin-1-yl)cyclopropyl)methyl)-N-(6-cyanopyridin-2-yl)propionamide] was run?
Answer: < 0.5 µM

Question: `CCOCCCN1CCN(C2(CN(C(=O)CC)c3cccc(C(F)(F)F)n3)CCOCC2)CC1` [Example 150, N-((4-(4-(3-ethoxypropyl)piperazin-1-yl)tetrahydro-2H-pyran-4-yl)methyl)-N-(6-(trifluoromethyl)pyridin-2-yl)propionamide] was tested. Which Ki did it give?
Answer: < 0.5 µM

Question: For `CCC(=O)N(CC1(N2CCN(CC(C)C)CC2)CCOCC1)c1ccccn1` [Example 151, N-((4-(4-isobutylpiperazin-1-yl)tetrahydro-2H-pyran-4-yl)methyl)-N-(pyridin-2-yl)propionamide], which Ki is on record?
Answer: > 0.5 µM

Question: How did the “μ and σ1 dual (binding to the σ1 receptor and the μ-opioid receptor expressed as Ki)” value (“μ and σ1 dual” for short) turn out when `CCC(=O)N(CC(C)C)CC1(N2CCN(Cc3ccccc3)CC2)CCOCC1` [Example 15, N-((4-(4-benzylpiperazin-1-yl)tetrahydro-2H-pyran-4-yl)methyl)-N-isobutylpropionamide] was run?
Answer: ++

Question: `CCC(=O)N(CC1(N2CCN(CCOCC(C)(C)O)CC2)CCOCC1)c1cccc(C(F)(F)F)n1` [Example 186, N-((4-(4-(2-(2-hydroxy-2-methylpropoxy)ethyl)piperazin-1-yl)tetrahydro-2H-pyran-4-yl)methyl)-N-(6-(trifluoromethyl)pyridin-2-yl)propionamide] was tested. Which “μ and σ1 dual” value did it give?
Answer: ++

Question: How did the Ki turn out when `CCC(=O)N(CC1(N2CCN(C(CO)c3ccccc3)CC2)CCOCC1)c1ccccn1` (centres unmarked) [Example 181, N-((4-(4-(2-hydroxy-1-phenylethyl)piperazin-1-yl)tetrahydro-2H-pyran-4-yl)methyl)-N-(pyridin-2-yl)propionamide] was run?
Answer: > 0.5 µM

Question: How did the “μ and σ1 dual” value turn out when `CCC(=O)N(CC(C)(C)N1CCN(CCc2ncccc2F)CC1)c1ccccn1` [Example 70, N-(2-(4-(2-(3-fluoropyridin-2-yl)ethyl)piperazin-1-yl)-2-methylpropyl)-N-(pyridin-2-yl)propionamide] was run?
Answer: ++

Question: `CCC(=O)N(CC1(N2CCN(Cc3ccccc3)CC2)CC1)c1cccnc1` [Example 36, N-((1-(4-benzylpiperazin-1-yl)cyclopropyl)methyl)-N-(pyridin-3-yl)propionamide] was tested. Which Ki did it give?
Answer: < 0.5 µM

Question: Which Ki does the source give for `CCC(=O)N(CC1(N2CCN(Cc3ccccc3)CC2)CCOC(C)(C)C1)c1ncccc1F` (centres unmarked) [Example 64, N-((4-(4-benzylpiperazin-1-yl)-2,2-dimethyltetrahydro-2H-pyran-4-yl)methyl)-N-(3-fluoropyridin-2-yl)propionamide] here?
Answer: < 0.5 µM

Question: Which Ki does the source give for `CCC(=O)N(CC1(N2CCN(CCc3ccncc3)CC2)CCOCC1)c1cccc(C(F)(F)F)n1` [Example 206, N-((4-(4-(2-(pyridin-4-yl)ethyl)piperazin-1-yl)tetrahydro-2H-pyran-4-yl)methyl)-N-(6-(trifluoromethyl)pyridin-2-yl)propionamide] here?
Answer: < 0.5 µM

Question: `CCC(=O)N(CC1(N2CCN(CC(C)C)CC2)CCOC(C)(C)C1)c1ncccc1F` (centres unmarked) [Example 170, N-(3-fluoropyridin-2-yl)-N-((4-(4-isobutylpiperazin-1-yl)-2,2-dimethyltetrahydro-2H-pyran-4-yl)methyl)propionamide] was tested. Which “μ and σ1 dual” value did it give?
Answer: ++

Question: Which Ki does the source give for `CCC(=O)N(CC1(N2CCN(CCOC(C)C)CC2)CC1)c1cccc(C(F)(F)F)n1` [Example 179, N-((1-(4-(2-isopropoxyethyl)piperazin-1-yl)cyclopropyl)methyl)-N-(6-(trifluoromethyl)pyridin-2-yl)propionamide] here?
Answer: < 0.5 µM

Question: With `CC(=O)N(CC1(N2CCN(CC(C)C)CC2)CCOCC1)c1cccc(C(F)(F)F)n1` [Example 40, N-((4-(4-isobutylpiperazin-1-yl)tetrahydro-2H-pyran-4-yl)methyl)-N-(6-(trifluoromethyl)pyridin-2-yl)acetamide] as the compound, how does the “μ and σ1 dual” value read?
Answer: ++

Question: For `CCC(=O)N(CC1(N2CCN(CCOCC(C)(C)F)CC2)CCOCC1)c1cccc(C(F)(F)F)n1` [Example 189, N-((4-(4-(2-(2-fluoro-2-methylpropoxy)ethyl)piperazin-1-yl)tetrahydro-2H-pyran-4-yl)methyl)-N-(6-(trifluoromethyl)pyridin-2-yl)propionamide], which Ki is on record?
Answer: < 0.1 µM

Question: `CCOCCN1CCN(C2(CN(C(=O)CC)c3cccc(C(F)(F)F)n3)CCC2)CC1` [Example 202, N-((1-(4-(2-ethoxyethyl)piperazin-1-yl)cyclobutyl)methyl)-N-(6-(trifluoromethyl)pyridin-2-yl)propionamide] was tested. Which Ki did it give?
Answer: < 0.5 µM

Question: `CCC(=O)N(CC1(N2CCN(Cc3ccccc3)CC2)CC1)c1cccnc1C(F)(F)F` [Example 76, N-((1-(4-benzylpiperazin-1-yl)cyclopropyl)methyl)-N-(2-(trifluoromethyl)pyridin-3-yl)propionamide] was tested. Which Ki did it give?
Answer: < 0.5 µM

Question: How did the Ki turn out when `CCC(=O)N(CC1(N2CCN(CC(C)C)CC2)CCOC2(CCCC2)C1)c1cccc(C(F)(F)F)n1` (centres unmarked) [Example 175, N-((9-(4-isobutylpiperazin-1-yl)-6-oxaspiro[4.5]decan-9-yl)methyl)-N-(6-(trifluoromethyl)pyridin-2-yl)propionamide] was run?
Answer: < 0.5 µM

Question: How did the Ki turn out when `CCC(=O)N(CC1(N2CCN(Cc3ccccc3)CC2)CC1)c1ncccc1C#N` [Example 80, N-((1-(4-benzylpiperazin-1-yl)cyclopropyl)methyl)-N-(3-cyanopyridin-2-yl)propionamide] was run?
Answer: < 0.5 µM

Question: For `CCC(=O)N(CC1(C2CCN(CC(C)C)CC2)CCOCC1)c1cccc(C(F)(F)F)n1` [Example 178, N-((4-(1-isobutylpiperidin-4-yl)tetrahydro-2H-pyran-4-yl)methyl)-N-(6-(trifluoromethyl)pyridin-2-yl)propionamide], which “μ and σ1 dual” value is on record?
Answer: ++

Question: For `CCC(=O)N(CC1(N2CCN(CCC(C)C)CC2)CCOC(C)(C)C1)c1cccc(C#N)n1` (centres unmarked) [Example 88, N-(6-cyanopyridin-2-yl)-N-((4-(4-isopentylpiperazin-1-yl)-2,2-dimethyltetrahydro-2H-pyran-4-yl)methyl)propionamide], which “μ and σ1 dual” value is on record?
Answer: ++

Question: With `CCC(=O)N(CC1(N2CCN(CCC(C)C)CC2)CCOCC1)c1cccc(C#N)n1` [Example 86, N-(6-cyanopyridin-2-yl)-N-((4-(4-isopentylpiperazin-1-yl)tetrahydro-2H-pyran-4-yl)methyl)propionamide] as the compound, how does the Ki read?
Answer: < 0.5 µM

Question: For `CCC(=O)N(CC1(N2CCN(C(C)COC)CC2)CCOCC1)c1cccc(C(F)(F)F)n1` (centres unmarked) [Example 112, N-((4-(4-(1-methoxypropan-2-yl)piperazin-1-yl)tetrahydro-2H-pyran-4-yl)methyl)-N-(6-(trifluoromethyl)pyridin-2-yl)propionamide], which “μ and σ1 dual” value is on record?
Answer: ++

Question: With `CCC(=O)N(CC1(N2CCN(Cc3ccccc3)CC2)CCOCC1)c1ccccn1` [Example 56, N-((4-(4-benzylpiperazin-1-yl)tetrahydro-2H-pyran-4-yl)methyl)-N-(pyridin-2-yl)propionamide] as the compound, how does the Ki read?
Answer: < 0.5 µM

Question: Which Ki does the source give for `CCC(=O)N(CC1(N2CCN(CCc3ccccc3)CC2)CCCCC1)c1ccccn1` [Example 21, N-((1-(4-phenethylpiperazin-1-yl)cyclohexyl)methyl)-N-(pyridin-2-yl)propionamide] here?
Answer: < 0.5 µM

Question: Which Ki does the source give for `CCC(=O)N(CC1(N2CCN(Cc3ccccc3)CC2)CCOCC1)c1ccc(F)c(C#N)n1` [Example 61, N-((4-(4-benzylpiperazin-1-yl)tetrahydro-2H-pyran-4-yl)methyl)-N-(6-cyano-5-fluoropyridin-2-yl)propionamide] here?
Answer: < 0.5 µM

Question: With `CCC(=O)N(CC1(N2CCN(Cc3ccccc3)CC2)CCOCC1)c1cccc(C#N)n1` [Example 84, N-((4-(4-benzylpiperazin-1-yl)tetrahydro-2H-pyran-4-yl)methyl)-N-(6-cyanopyridin-2-yl)propionamide] as the compound, how does the Ki read?
Answer: < 0.5 µM

Question: Which Ki does the source give for `CCC(=O)N(CC1(N2CCN(Cc3cccnc3)CC2)CCOCC1)c1ccccc1` [Example 101, N-phenyl-N-((4-(4-(pyridin-3-ylmethyl)piperazin-1-yl)tetrahydro-2H-pyran-4-yl)methyl)propionamide] here?
Answer: < 0.5 µM

Question: `CCC(=O)N(Cc1ccccc1)CC1(N2CCN(Cc3ccccc3)CC2)CCOCC1` [Example 14, N-benzyl-N-((4-(4-benzylpiperazin-1-yl)tetrahydro-2H-pyran-4-yl)methyl)propionamide] was tested. Which “μ and σ1 dual” value did it give?
Answer: ++
